{"source": "ChEMBL document CHEMBL3046607", "about": "“Synthesis and Herbicidal Activity of New 1-Alkyl-3-aryloxypyrazole-4-carboxamide Derivatives” (J Pestic Sci, 2004)", "key": {"Rotala indica [1]": {"test_system": "Rotala indica", "experiment": "Post-emergence herbicidal activity against Rotala indica assessed as bleaching of stem/leaf parts", "type": "functional, organism-based"}, "Pontederia vaginalis [2]": {"test_system": "Pontederia vaginalis", "experiment": "Pre-emergence herbicidal activity against Monochoria vaginalis at 100 g a.i/ha measured after 14 days", "type": "functional, organism-based"}, "Ammannia multiflora [3]": {"test_system": "Ammannia multiflora", "experiment": "Post-emergence herbicidal activity against Ammannia multiflora assessed as bleaching of stem/leaf parts", "type": "functional, organism-based"}, "Rotala indica [4]": {"test_system": "Rotala indica", "experiment": "Pre-emergence herbicidal activity against Rotala indica assessed as bleaching of stem/leaf parts", "type": "functional, organism-based"}, "Ammannia multiflora [5]": {"test_system": "Ammannia multiflora", "experiment": "Pre-emergence herbicidal activity against Ammannia multiflora at 100 g a.i/ha measured after 14 days", "type": "functional, organism-based"}, "Pontederia vaginalis [6]": {"test_system": "Pontederia vaginalis", "experiment": "Post-emergence herbicidal activity against Monochoria vaginalis assessed as bleaching of stem/leaf parts", "type": "functional, organism-based"}, "Lindernia procumbens [7]": {"test_system": "Lindernia procumbens", "experiment": "Pre-emergence herbicidal activity against Lindernia procumbens at 100 g a.i/ha measured after 14 days", "type": "functional, organism-based"}, "Cyperus difformis [8]": {"test_system": "Cyperus difformis", "experiment": "Pre-emergence herbicidal activity against Cyperus difformis at 100 g a.i/ha measured after 14 days", "type": "functional, organism-based"}, "Echinochloa oryzicola [9]": {"test_system": "Echinochloa oryzicola", "experiment": "Pre-emergence herbicidal activity against Echinochloa oryzicola at 100 g a.i/ha measured after 14 days", "type": "functional, organism-based"}, "Cyperus difformis [10]": {"test_system": "Cyperus difformis", "experiment": "Post-emergence herbicidal activity against Cyperus difformis assessed as bleaching of stem/leaf parts; note: test concentration or dose not given here", "type": "functional, organism-based"}, "Oryza sativa [11]": {"test_system": "Oryza sativa", "experiment": "Phytotoxicity against Oryza sativa cv. Koshihikari (rice) at 100 g a.i/ha measured after 14 days", "type": "organism-based", "details": "in vivo, 336 h"}, "[12]": {"test_system": "Schoenoplectiella juncoides", "experiment": "Pre-emergence herbicidal activity against Schoenoplectiella juncoides assessed as bleaching of stem/leaf parts", "type": "functional, organism-based"}, "Pontederia vaginalis [13]": {"test_system": "Pontederia vaginalis", "experiment": "Pre-emergence herbicidal activity against Monochoria vaginalis assessed as bleaching of stem/leaf parts", "type": "functional, organism-based"}, "Echinochloa oryzicola [14]": {"test_system": "Echinochloa oryzicola", "experiment": "Pre-emergence herbicidal activity against Echinochloa oryzicola assessed as bleaching of stem/leaf parts", "type": "functional, organism-based"}, "Echinochloa oryzicola [15]": {"test_system": "Echinochloa oryzicola", "experiment": "Post-emergence herbicidal activity against Echinochloa oryzicola assessed as bleaching of stem/leaf parts", "type": "functional, organism-based"}, "[16]": {"test_system": "Schoenoplectiella juncoides", "experiment": "Post-emergence herbicidal activity against Schoenoplectiella juncoides assessed as bleaching of stem/leaf parts; note: test concentration or dose not given here", "type": "functional, organism-based"}, "Ammannia multiflora [17]": {"test_system": "Ammannia multiflora", "experiment": "Pre-emergence herbicidal activity against Ammannia multiflora assessed as bleaching of stem/leaf parts", "type": "functional, organism-based"}, "Elatine triandra [18]": {"test_system": "Elatine triandra", "experiment": "Pre-emergence herbicidal activity against Elatine triandra at 100 g a.i/ha measured after 14 days", "type": "functional, organism-based"}, "Elatine triandra [19]": {"test_system": "Elatine triandra", "experiment": "Post-emergence herbicidal activity against Elatine triandra assessed as bleaching of stem/leaf parts; note: test concentration or dose not given here", "type": "functional, organism-based"}, "Lindernia procumbens [20]": {"test_system": "Lindernia procumbens", "experiment": "Pre-emergence herbicidal activity against Lindernia procumbens assessed as bleaching of stem/leaf parts", "type": "functional, organism-based"}, "Cyperus difformis [21]": {"test_system": "Cyperus difformis", "experiment": "Pre-emergence herbicidal activity against Cyperus difformis assessed as bleaching of stem/leaf parts", "type": "functional, organism-based"}, "Rotala indica [22]": {"test_system": "Rotala indica", "experiment": "Pre-emergence herbicidal activity against Rotala indica at 100 g a.i/ha measured after 14 days", "type": "functional, organism-based"}, "[23]": {"test_system": "Schoenoplectiella juncoides", "experiment": "Pre-emergence herbicidal activity against Schoenoplectiella juncoides at 100 g a.i/ha measured after 14 days", "type": "functional, organism-based"}, "Lindernia procumbens [24]": {"test_system": "Lindernia procumbens", "experiment": "Post-emergence herbicidal activity against Lindernia procumbens assessed as bleaching of stem/leaf parts; note: test concentration or dose not given here", "type": "functional, organism-based"}, "Elatine triandra [25]": {"test_system": "Elatine triandra", "experiment": "Pre-emergence herbicidal activity against Elatine triandra assessed as bleaching of stem/leaf parts", "type": "functional, organism-based"}, "Lindernia procumbens [26]": {"test_system": "Lindernia procumbens", "experiment": "Pre-emergence herbicidal activity against Lindernia procumbens at 500 g a.i/ha measured after 14 days", "type": "functional, organism-based"}, "[27]": {"test_system": "Schoenoplectiella juncoides", "experiment": "Pre-emergence herbicidal activity against Schoenoplectiella juncoides at 500 g a.i/ha measured after 14 days", "type": "functional, organism-based"}, "Cyperus difformis [28]": {"test_system": "Cyperus difformis", "experiment": "Pre-emergence herbicidal activity against Cyperus difformis at 500 g a.i/ha measured after 14 days", "type": "functional, organism-based"}, "Echinochloa oryzicola [29]": {"test_system": "Echinochloa oryzicola", "experiment": "Pre-emergence herbicidal activity against Echinochloa oryzicola at 500 g a.i/ha measured after 14 days", "type": "functional, organism-based"}, "Pontederia vaginalis [30]": {"test_system": "Pontederia vaginalis", "experiment": "Pre-emergence herbicidal activity against Monochoria vaginalis at 500 g a.i/ha measured after 14 days", "type": "functional, organism-based"}, "Ammannia multiflora [31]": {"test_system": "Ammannia multiflora", "experiment": "Pre-emergence herbicidal activity against Ammannia multiflora at 500 g a.i/ha measured after 14 days", "type": "functional, organism-based"}, "Rotala indica [32]": {"test_system": "Rotala indica", "experiment": "Pre-emergence herbicidal activity against Rotala indica at 500 g a.i/ha measured after 14 days", "type": "functional, organism-based"}, "Elatine triandra [33]": {"test_system": "Elatine triandra", "experiment": "Pre-emergence herbicidal activity against Elatine triandra at 500 g a.i/ha measured after 14 days", "type": "functional, organism-based"}, "Oryza sativa [34]": {"test_system": "Oryza sativa", "experiment": "Phytotoxicity against Oryza sativa cv. Koshihikari (rice) at 500 g a.i/ha measured after 14 days", "type": "organism-based", "details": "in vivo, 336 h"}}, "note": "Active and inactive are the calls of the source. No cut-off for these calls is given here."}
{"molecule": "COc1ccc(NC(=O)c2cn(C)nc2Oc2cccc(C(F)(F)F)c2)cc1OC", "values": [{"measurement": "Activity", "setting": "Rotala indica [1]", "result": "Active"}, {"measurement": "Activity", "setting": "Pontederia vaginalis [2]", "result": "inactive"}, {"measurement": "Activity", "setting": "Ammannia multiflora [3]", "result": "Active"}, {"measurement": "Activity", "setting": "Rotala indica [4]", "result": "Active"}, {"measurement": "Activity", "setting": "Ammannia multiflora [5]", "result": "inactive"}, {"measurement": "Activity", "setting": "Pontederia vaginalis [6]", "result": "Active"}, {"measurement": "Activity", "setting": "Lindernia procumbens [7]", "result": "inactive"}, {"measurement": "Activity", "setting": "Cyperus difformis [8]", "result": "inactive"}, {"measurement": "Activity", "setting": "Echinochloa oryzicola [9]", "result": "inactive"}, {"measurement": "Activity", "setting": "Cyperus difformis [10]", "result": "Active"}, {"measurement": "Activity", "setting": "Oryza sativa [11]", "result": "Non-toxic"}, {"measurement": "Activity", "setting": "[12]", "result": "Active"}, {"measurement": "Activity", "setting": "Pontederia vaginalis [13]", "result": "Active"}, {"measurement": "Activity", "setting": "Echinochloa oryzicola [14]", "result": "Active"}, {"measurement": "Activity", "setting": "Echinochloa oryzicola [15]", "result": "Active"}, {"measurement": "Activity", "setting": "[16]", "result": "Active"}, {"measurement": "Activity", "setting": "Ammannia multiflora [17]", "result": "Active"}, {"measurement": "Activity", "setting": "Elatine triandra [18]", "result": "inactive"}, {"measurement": "Activity", "setting": "Elatine triandra [19]", "result": "Active"}, {"measurement": "Activity", "setting": "Lindernia procumbens [20]", "result": "Active"}, {"measurement": "Activity", "setting": "Cyperus difformis [21]", "result": "Active"}, {"measurement": "Activity", "setting": "Rotala indica [22]", "result": "inactive"}, {"measurement": "Activity", "setting": "[23]", "result": "inactive"}, {"measurement": "Activity", "setting": "Lindernia procumbens [24]", "result": "Active"}, {"measurement": "Activity", "setting": "Elatine triandra [25]", "result": "Active"}]}
{"molecule": "CCCONC(=O)c1cn(C)nc1Oc1cccc(C(F)(F)F)c1", "values": [{"measurement": "Activity", "setting": "Rotala indica [1]", "result": "Active"}, {"measurement": "Activity", "setting": "Lindernia procumbens [26]", "result": "Active"}, {"measurement": "Activity", "setting": "Pontederia vaginalis [2]", "result": "Active"}, {"measurement": "Activity", "setting": "Ammannia multiflora [3]", "result": "Active"}, {"measurement": "Activity", "setting": "Rotala indica [4]", "result": "Active"}, {"measurement": "Activity", "setting": "[27]", "result": "Active"}, {"measurement": "Activity", "setting": "Cyperus difformis [28]", "result": "Active"}, {"measurement": "Activity", "setting": "Ammannia multiflora [5]", "result": "Active"}, {"measurement": "Activity", "setting": "Pontederia vaginalis [6]", "result": "Active"}, {"measurement": "Activity", "setting": "Lindernia procumbens [7]", "result": "Active"}, {"measurement": "Activity", "setting": "Echinochloa oryzicola [9]", "result": "Active"}, {"measurement": "Activity", "setting": "Cyperus difformis [10]", "result": "Active"}, {"measurement": "Activity", "setting": "Oryza sativa [11]", "result": "Non-toxic"}, {"measurement": "Activity", "setting": "Echinochloa oryzicola [29]", "result": "Active"}, {"measurement": "Activity", "setting": "[12]", "result": "Active"}, {"measurement": "Activity", "setting": "Pontederia vaginalis [13]", "result": "Active"}, {"measurement": "Activity", "setting": "Echinochloa oryzicola [14]", "result": "Active"}, {"measurement": "Activity", "setting": "Echinochloa oryzicola [15]", "result": "Active"}, {"measurement": "Activity", "setting": "[16]", "result": "Active"}, {"measurement": "Activity", "setting": "Ammannia multiflora [17]", "result": "Active"}, {"measurement": "Activity", "setting": "Pontederia vaginalis [30]", "result": "Active"}, {"measurement": "Activity", "setting": "Elatine triandra [18]", "result": "Active"}, {"measurement": "Activity", "setting": "Elatine triandra [19]", "result": "Active"}, {"measurement": "Activity", "setting": "Lindernia procumbens [20]", "result": "Active"}, {"measurement": "Activity", "setting": "Ammannia multiflora [31]", "result": "Active"}, {"measurement": "Activity", "setting": "Cyperus difformis [21]", "result": "Active"}, {"measurement": "Activity", "setting": "Rotala indica [32]", "result": "Active"}, {"measurement": "Activity", "setting": "Rotala indica [22]", "result": "Active"}, {"measurement": "Activity", "setting": "[23]", "result": "Active"}, {"measurement": "Activity", "setting": "Elatine triandra [33]", "result": "Active"}, {"measurement": "Activity", "setting": "Lindernia procumbens [24]", "result": "Active"}, {"measurement": "Activity", "setting": "Oryza sativa [34]", "result": "Toxic"}, {"measurement": "Activity", "setting": "Elatine triandra [25]", "result": "Active"}]}
{"molecule": "Cn1cc(C(=O)Nc2ccc(C(C)(C)C)cc2)c(Oc2cccc(C(F)(F)F)c2)n1", "values": [{"measurement": "Activity", "setting": "Rotala indica [1]", "result": "Active"}, {"measurement": "Activity", "setting": "Pontederia vaginalis [2]", "result": "inactive"}, {"measurement": "Activity", "setting": "Ammannia multiflora [3]", "result": "Active"}, {"measurement": "Activity", "setting": "Rotala indica [4]", "result": "Active"}, {"measurement": "Activity", "setting": "Ammannia multiflora [5]", "result": "inactive"}, {"measurement": "Activity", "setting": "Pontederia vaginalis [6]", "result": "Active"}, {"measurement": "Activity", "setting": "Lindernia procumbens [7]", "result": "inactive"}, {"measurement": "Activity", "setting": "Cyperus difformis [8]", "result": "inactive"}, {"measurement": "Activity", "setting": "Echinochloa oryzicola [9]", "result": "inactive"}, {"measurement": "Activity", "setting": "Cyperus difformis [10]", "result": "Active"}, {"measurement": "Activity", "setting": "Oryza sativa [11]", "result": "Non-toxic"}, {"measurement": "Activity", "setting": "[12]", "result": "Active"}, {"measurement": "Activity", "setting": "Pontederia vaginalis [13]", "result": "Active"}, {"measurement": "Activity", "setting": "Echinochloa oryzicola [14]", "result": "Active"}, {"measurement": "Activity", "setting": "Echinochloa oryzicola [15]", "result": "Active"}, {"measurement": "Activity", "setting": "[16]", "result": "Active"}, {"measurement": "Activity", "setting": "Ammannia multiflora [17]", "result": "Active"}, {"measurement": "Activity", "setting": "Elatine triandra [18]", "result": "inactive"}, {"measurement": "Activity", "setting": "Elatine triandra [19]", "result": "Active"}, {"measurement": "Activity", "setting": "Lindernia procumbens [20]", "result": "Active"}, {"measurement": "Activity", "setting": "Cyperus difformis [21]", "result": "Active"}, {"measurement": "Activity", "setting": "Rotala indica [22]", "result": "inactive"}, {"measurement": "Activity", "setting": "[23]", "result": "inactive"}, {"measurement": "Activity", "setting": "Lindernia procumbens [24]", "result": "Active"}, {"measurement": "Activity", "setting": "Elatine triandra [25]", "result": "Active"}]}
